Values quoted from earlier work in article PMC9889658, “The structure of MadC from Clostridium maddingley reveals new insights into class I lanthipeptide cyclases” (Frontiers in Microbiology, 2023).

Target: NisB
Details: dependent on maturation state; ref Mavaro et al., 2011; read-out: binding affinity
Excerpt: This implies a higher relevance of the LP comp ...

Kd: 1000 nM
Sequence: MSTKDFNLDLVSVSKKDSGASPRITSISLCTPGCKTGALMGCNMKTATCHCSIHVSK [unmodified prenisin, unmodified nisin precursor peptide]
